Assay results: EP0146219A1, “Aminophosphonic & aminophosphinic acid derivatives processes for their preparation & herbicidal compositions containing them” (priority 1983, dated 1985)
Where a name gives a salt, the structure may show the parent alone.

Legend:
[1] = solubility and crystallization of the salts in water; format: physicochemical; settings: for solubility: at room temperature
[2] = herbicidal activity when applied to the soil (statement in the text); format: in vivo; settings: soil application
various plant species = assay: post-emergence herbicidal activity, overall comparison; format: in vivo; settings: for herbicidal activity compared with the related amine (IPA) salt: post-emergence, Tables II and III
Description: (§1) The spray, a water solution containing active ingredient and a surfactant is applied to the plants in different sets of pans at several rates (kilogram per dunam) of active ingredient. The treated plants are placed in a greenhouse and the effects are observed and recorded after 4 days (table II) and after 2 weeks (table III). The post-emergence herbicidal activity index used in Table II and III is as follows: […]

Convolvulus arvensis [3] = assay: soil-applied (pre-emergence) test in planted trays, visual percent inhibition; format: in vivo; settings: 336 h, read-out: % inhibition. B; for inhibition at 1000 g/ha: rate 1.0 KG/HECTARE
Protocol: (§2) Plastic trays were planted with green cynondon dactylon, convolvulus arvensis and sinapis arvensis and covered with a good grade of top soil. All materials were applied with a laboratory sprayer that delivered a volume of 187 1/hectare. The trays of soil were thereafter watered lightly to activate the aminotriazole salts. The experiment was conducted twice and each was arranged in a completely random design with three replications. Visual estimates of percent inhibition were made at two weeks after treatment.

cynodon dactylon = assay: as above; format: in vivo; settings: 336 h; for inhibition at 1000 g/ha: rate 1.0 KG/HECTARE
Protocol: as §2

sinapis arvensis = assay: as above; format: in vivo; settings: Mutarda arvensis, 336 h, read-out: % inhibition. C; for inhibition at 1000 g/ha: rate 1.0 KG/HECTARE
Protocol: as §2

Cyperus Rotundus = format: in vivo; settings: after 2 weeks; spray to 21 day old plants; active ingredient mole/l: I 0.022, II 0.043, III 0.03, IV 0.043, V 0.043; also: key: 0: No injury; 1: Slight injury; 2: Moderate injury; 3: Severe injury; 4: Killed
Description: The spray, a water solution containing active ingredient and a surfactant is applied to the plants in different sets of pans at several rates (kilogram per dunam) of active ingredient. […] The post-emergence herbicidal activity index used in Table II and III is as follows: […]

Polygonum equiseliforme = assay: post-emergence herbicidal activity (spray, greenhouse); format: in vivo; settings: after 2 weeks; spray to 21 day old plants; active ingredient mole/l: I 0.022, II 0.043, III 0.03, IV 0.043, V 0.043; also: key: 0: No injury; 1: Slight injury; 2: Moderate injury; 3: Severe injury; 4: Killed
Description: as §1

Pennisetum clandestinum = assay: as above; format: in vivo; settings: after 2 weeks; spray to 21 day old plants; active ingredient mole/l: I 0.022, II 0.043, III 0.03, IV 0.043, V 0.043; also: key: 0: No injury; 1: Slight injury; 2: Moderate injury; 3: Severe injury; 4: Killed
Description: as §1

Rubus Sanguineus = assay: as above; format: in vivo; settings: after 2 weeks; spray to 21 day old plants; active ingredient mole/l: I 0.022, II 0.043, III 0.03, IV 0.043, V 0.043; also: key: 0: No injury; 1: Slight injury; 2: Moderate injury; 3: Severe injury; 4: Killed
Description: as §1

Inula Viscosa = assay: as above; format: in vivo; settings: after 2 weeks; spray to 21 day old plants; active ingredient mole/l: I 0.022, II 0.043, III 0.03, IV 0.043, V 0.043
Description: as §1

[4] = test system: Agropyron repens (quackgrass); assay: as above; format: in vivo; settings: after 2 weeks; spray to 21 day old plants; active ingredient mole/l: I 0.022, II 0.043, III 0.03, IV 0.043, V 0.043
Description: as §1

Avena sterilis = assay: as above; format: in vivo; settings: after 2 weeks; spray to 21 day old plants; active ingredient mole/l: I 0.022, II 0.043, III 0.03, IV 0.043, V 0.043
Description: as §1

Convolvulus arvensis [5] = assay: as above; format: in vivo; settings: after 2 weeks; spray to 21 day old plants; active ingredient mole/l: I 0.022, II 0.043, III 0.03, IV 0.043, V 0.043
Description: as §1

Cynodon daotylon = assay: as above; format: in vivo; settings: after 2 weeks; spray to 21 day old plants; active ingredient mole/l: I 0.022, II 0.043, III 0.03, IV 0.043, V 0.043
Description: as §1

Phragmites australis = assay: as above; format: in vivo; settings: after 2 weeks; spray to 21 day old plants; active ingredient mole/l: I 0.022, II 0.043, III 0.03, IV 0.043, V 0.043
Description: as §1

[6] = rate 0.5 KG/HECTARE, two weeks after treatment
[7] = rate 1.5 KG/HECTARE, two weeks after treatment

Row | SMILES | herbicidal activity compared with the related amine (IPA) salt (various plant species) | post-emergence herbicidal activity index, TABLE III, I (Cyperus Rotundus) | post-emergence herbicidal activity index, TABLE III, A (Polygonum equiseliforme) | post-emergence herbicidal activity index, TABLE III, E (Pennisetum clandestinum) | post-emergence herbicidal activity index, TABLE III, B (Rubus Sanguineus) | post-emergence herbicidal activity index, TABLE III, C (Inula Viscosa) | post-emergence herbicidal activity index, TABLE III, J [4] | post-emergence herbicidal activity index, TABLE III, H (Avena sterilis) | post-emergence herbicidal activity index, TABLE III, G (Convolvulus arvensis [5]) | post-emergence herbicidal activity index, TABLE III, F (Cynodon daotylon) | post-emergence herbicidal activity index, TABLE III, D (Phragmites australis) | inhibition at 1000 g/ha (Convolvulus arvensis [3]; two weeks after treatment) [%] | inhibition at 1000 g/ha (cynodon dactylon; two weeks after treatment) [%] | inhibition at 1000 g/ha (sinapis arvensis; two weeks after treatment) [%] | other results
1 | O=C(O)CNCP(=O)(O)O [IV, Mono(Isopropylamine)NPMG salt (ROUNDUP^(R)), reference compound] | – | – | – | – | – | – | – | – | – | – | – | – | – | – | crystalization ([1]; at lower temperature (0-S^oc)): crystalization of the salt may occur; solubility ([1]; listed as NPMG.IPA): 480 g/1; herbicidal activity when applied to the soil [2]: little herbicidal activity
2 | O=C(O)CN(CC(=O)O)CP(=O)(O)O [II, Di(3-amino-1,2,4-triazole)NPMIDA salt] | far more superior activity | 3 | 3 | 3 | 2 | 3 | 2 | 3 | 2 | 2 | 3 | – | – | – | inhibition at 700 g/ha (Convolvulus arvensis [3]): 55%; inhibition at 1200 g/ha (Convolvulus arvensis [3]): 70%; inhibition at 700 g/ha (cynodon dactylon; read-out: % inhibition. A): 40%; inhibition at 1200 g/ha (cynodon dactylon; read-out: % inhibition. A): 70%; inhibition at 700 g/ha (sinapis arvensis): 65%; inhibition at 1200 g/ha (sinapis arvensis): 80%
3 | O=C(O)CN(CC(=O)O)CP(=O)(O)O [V, Mono(Isopropylamine)NPMIDA salt, reference compound] | – | 1 | 1 | 1 | 1 | 2 | 1 | 1 | 0 | 0 | 1 | – | – | – | –
4 | O=C(O)CNCP(=O)(O)O [I, Di(3-amino-1,2,4-triazole)NPMG salt] | at least the same result | – | – | – | – | – | – | – | – | – | – | 90 | 80 | 90 | antagonistic interaction (various plant species; applied to many species of weed, especially quackgrass): no antagonistic interaction; speed of phytotoxic action (knock down effect) (various plant species; first 4 days after application, compared with amine salt IV): faster phytotoxic action; crystalization ([1]; at 0^oc): no crystalization; solubility ([1]; listed as NPMG-Diaminotriazole salt): at least 1000 g/1; inhibition at 500 g/ha (Convolvulus arvensis [3]; [6]): 80%; inhibition at 500 g/ha (cynodon dactylon; [6]): 45%; inhibition at 500 g/ha (sinapis arvensis; [6]): 60%
5 | CP(=O)(O)CCC(N)C(=O)O (stereo not drawn) [III, Di(3-amino-1,2,4-triazole)Phosphino-thricine salt.] | – | 3 | 3 | 3 | 3 | 3 | 3 | 3 | 3 | 3 | 2 | 30 | 10 | 30 | inhibition at 1500 g/ha (Convolvulus arvensis [3]; [7]): 50%; inhibition at 1500 g/ha (cynodon dactylon; [7]): 20%; inhibition at 1500 g/ha (sinapis arvensis; [7]): 60%
